Structures are written as SMILES. In brackets after ≈: the same amount, converted by molar mass. Some results are limits rather than exact numbers.

This note sets out measurements from publication PMC9736374, “Design, Synthesis and Antimicrobial Properties of New Tetracyclic Quinobenzothiazine Derivatives” (International Journal of Molecular Sciences, 2022).

For series [1], the system named is methicillin-resistant S. aureus SA 3202 (MRSA1). In words: MBC, agar aliquot subculture method. As to conditions: Staphylococcus aureus; MRSA1 = SA 3202. The class given is cell-based.
Series [2] concerns methicillin-resistant S. aureus 63718 (MRSA3). In words: MBC, agar aliquot subculture method. The class given is cell-based. The conditions noted are these: Staphylococcus aureus; MRSA3 = 63718.
For series [3], the system named is vancomycin-resistant E. faecalis VRE 368 (VRE2). In words: MIC, microtitration broth method. The conditions noted are these: VRE2 = VRE 368; 24 h, 37 °C. The class given is cell-based, Enterococcus faecalis.
The subject of series [4] is vancomycin-resistant E. faecalis VRE 725B (VRE3). Kind of series: MBC, agar aliquot subculture method. In kind it is cell-based, Enterococcus faecalis. As to conditions: VRE3 = VRE 725B.
In series [5] the test system is Staphylococcus aureus ATCC 29213. Kind of series: MIC, microtitration broth method. The class given is cell-based. As to conditions: ATCC29213; SA = Staphylococcus aureus ATCC 29213; 24 h, 37 °C.
Series [6] deals with methicillin-resistant S. aureus SA 3202 (MRSA1). In words: MIC, microtitration broth method. The class given is cell-based. As to conditions: Staphylococcus aureus; MRSA1 = SA 3202; 24 h, 37 °C.
The subject of series [7] is Mycobacterium marinum CAMP 5644. Kind of series: In vitro antimycobacterial MIC, broth dilution micro-method. The class given is cell-based. The conditions noted are these: CAMP5644, 504 h; MM = Mycobacterium marinum CAMP 5644; 21 days, 28 °C. In general terms: Dilution methods test growth across graded concentrations, often in twofold steps.
The test system of series [8] is methicillin-resistant S. aureus SA 630 (MRSA2). Kind of series: MBC, agar aliquot subculture method. The class given is cell-based. The conditions noted are these: Staphylococcus aureus; MRSA2 = SA 630.
In series [9] the test system is Enterococcus faecalis ATCC 29212. In words: MIC, microtitration broth method. The conditions noted are these: ATCC29212; EF = Enterococcus faecalis; 24 h, 37 °C. In kind it is cell-based.
Series [10] relates to vancomycin-resistant E. faecalis VRE 368 (VRE2). In words: MBC, agar aliquot subculture method. The class given is cell-based, Enterococcus faecalis. The conditions noted are these: VRE2 = VRE 368.
Series [11] has as its system Staphylococcus aureus ATCC 29213. In words: MBC, agar aliquot subculture method. In kind it is cell-based. The conditions noted are these: ATCC29213; SA = Staphylococcus aureus ATCC 29213.
Series [12] deals with vancomycin-resistant E. faecalis VRE 725B (VRE3). Kind of series: MIC, microtitration broth method. In kind it is cell-based, Enterococcus faecalis. The conditions noted are these: VRE3 = VRE 725B; 24 h, 37 °C.
Series [13] relates to M. smegmatis ATCC 700084. In words: In vitro antimycobacterial MIC, broth dilution micro-method. The conditions noted are these: Mycolicibacterium smegmatis, ATCC700084, 72 h; MS = M. smegmatis ATCC 700084; 3 days, 37 °C. In kind it is cell-based, Mycobacterium smegmatis.
The test system of series [14] is methicillin-resistant S. aureus 63718 (MRSA3). Kind of series: MIC, microtitration broth method. The class given is cell-based. As to conditions: Staphylococcus aureus; MRSA3 = 63718; 24 h, 37 °C.
Series [15] is described as follows: Lipophilicity by RP-TLC. In kind it is physicochemical. As to conditions: Tris buffer pH 7.4/acetone, read-out: logPTLC. The method, then: The lipophilicity parameters were determined experimentally using reverse phase thin-layer chromatography (RP-TLC). Chromatograms were prepared on RP-18F254s plates (1.05559.0001, Merck, Germany) precoated with nonpolar silicone oil. Plates were developed in glass chromatography chambers previously saturated with vapor of mobile phase. The mobile phase was composed of 0.2M Tris buffer (pH = 7.4) and acetone in different concentrations, i.e., 50%, 60%, 70%, 80 and 90%. The chromatograms were visualised in UV light (λ = 254 nm). Determination of the RF coefficient was carried out twice for all compounds; in all cases, acetone concentrations used. The final value of RF is the mean of the two measurements. The obtained RF coefficient was used to calculate the value of the RM parameter according to the equation: RM = log [(1/RF) − 1]. By extrapolating RM values to zero acetone concentration, a relative RM0 lipophilicity parameter was obtained, according to the equation: RM = RM0 + bC, where b is slope and C is concentration of acetone in mobile phase. Based on RM0 and the calibration curve, the values of logPTLC for compounds 6a–l were determined. The calibration curve was calculated using the relationship between RM0 of the standard molecules (acetanilide, p-kresol, p-bromoacetophenone, benzophenone, anthracene) and the corresponding logP parameters specified by the extraction method, respectively. RM0 parameters of the standard molecules and quinobenzothiazine derivatives 6a–l were determined in the same empirical conditions.

The subject of series [16] is Enterococcus faecalis ATCC 29212. In words: MBC, agar aliquot subculture method. The conditions noted are these: ATCC29212; EF = Enterococcus faecalis. In kind it is cell-based.
Series [17] deals with vancomycin-resistant E. faecalis VRE 342B (VRE1). Kind of series: MIC, microtitration broth method. In kind it is cell-based, Enterococcus faecalis. The conditions noted are these: VRE1 = VRE 342B; 24 h, 37 °C.
Series [18] deals with methicillin-resistant S. aureus SA 630 (MRSA2). In words: MIC, microtitration broth method. As to conditions: Staphylococcus aureus; MRSA2 = SA 630; 24 h, 37 °C. The class given is cell-based.
The test system of series [19] is normal human dermal fibroblasts (NHDF). In words: In vitro cell viability, WST-1 assay. The class given is cell-based. The conditions noted are these: 72 h. The method, then:
Compounds were evaluated for their antiproliferative activity using NHDF (normal human dermal fibroblasts, ATCC, Manassas, VA, USA). The cultured cells were kept at 37 °C and 5% CO2. The cells were seeded (1 × 10^4 cells/well/100 μL DMEM supplemented with 10% FCS and streptomycin/penicillin) into 96-well plates (Corning Inc., Corning, NY, USA). Cells were counted using a hemocytometer (Burker chamber) and phase contrast Olympus IX50 microscope equipped with Sony SSC-DC58 AP camera and Olympus DP10 digital camera. The cell viability of the compounds was determined using the Cell Proliferation Reagent WST-1 assay (Roche Molecular Biochemicals, Mannheim, Germany). The examined cells were exposed to the tested compounds (1 mg/mL DMSO stock) for 72 h at various concentrations (0.1–100 μg/mL). The control was included in order to eliminate the DMSO effect at the concentration used. Cell cultures were incubated with WST-1 (10 μL) for 1 h. The absorbance of the samples was measured against a background control at 450 nm using a microplate reader with a reference wavelength at 600 nm. The obtained results are expressed as means of at least two independent experiments performed in triplicate.
In general terms: Tetrazolium assays rely on reduction of a dye to a coloured formazan, in cell work by metabolically active cells.

In series [20] the test system is vancomycin-resistant E. faecalis VRE 342B (VRE1). Kind of series: MBC, agar aliquot subculture method. The class given is cell-based, Enterococcus faecalis. As to conditions: VRE1 = VRE 342B.
Series [21] deals with S. aureus ATCC 29213 respiratory activity. Kind of series: MTT assay of bacterial respiration. In kind it is cell-based, Staphylococcus aureus. As to conditions: for Conc.: corresponding multiple of MBC with at least 70% inhibition of respiratory activity / Conc.: lowest multiple of MIC with at least 70% inhibition of respiratory activity: S. aureus ATCC 29213, MTT, 24 h.

In the case of `CCCOc1cccc2c1Nc1c(c[n+](C)c3ccccc13)S2` [Compound 6c, 11-propoxy-5-methyl-12H-quino[3,4-b][1,4]benzothiazinium chloride], the MBC in series [1], in series [2], in [4], in series [8], in series [10] and in series [11] was 178 µM each time. Further, the MBC in series [16] and in series [20] was 178 µM each time. Further, the MIC (as a rule, the smallest concentration in the dilution series that meets the test's criterion for growth inhibition) in [3] amounted to 178 µM; in [5], 178 µM; in series [6], 178 µM; in series [7], 44.6 µM; in series [9], 178 µM; in [12], 89.1 µM. The MIC in series [13] is 44.6 µM; in series [14], 178 µM; in [17] it was 178 µM; in series [18] it was 178 µM. Further, in series [15], the chromatographic logP came to 1.18. Besides, in series [19], the IC50 (usually the point on the concentration scale where inhibition reaches its midpoint) was greater than 100 µM.
Take `CC1(C)S[C@@H]2[C@H](NC(=O)[C@H](N)c3ccccc3)C(=O)N2[C@H]1C(=O)O` [AMP, ampicillin, reference compound]: the “Conc.: corresponding multiple of MBC with at least 70% inhibition of respiratory activity” value in series [21] is 16× MIC (>16× MBC). The “Conc.: lowest multiple of MIC with at least 70% inhibition of respiratory activity” value in series [21] is 16× MIC (>16× MBC). In addition, the MIC in series [5] is 5.72 µM (≈ 2 µg/mL); in [9] it was 2.81 µM (≈ 0.982 µg/mL). The MBC (usually the lowest tested concentration that kills the bacteria rather than only halting them) in [11] is 5.72 µM (≈ 2 µg/mL); in series [16], 2.81 µM (≈ 0.982 µg/mL).
With `C[n+]1cc2c(c3ccccc31)Nc1c(OCc3ccccc3)cccc1S2` [Compound 6l, 11-benzyloxy-5-methyl-12H-quino[3,4-b][1,4]benzothiazinium chloride], the MBC in [1] worked out at 78.6 µM; in series [2] it was 39.3 µM; in series [4], 157 µM; in series [8], 78.6 µM; in [10], 157 µM; in series [11], 39.3 µM. In addition, the MBC in series [16] and in series [20] was 157 µM each time. The MIC is 157 µM in series [3]; 39.3 µM in [5]; 39.3 µM in series [6]; 9.83 µM in [7]; 157 µM in series [9]; 157 µM in series [12]. Further, the MIC is 39.3 µM in series [13], 39.3 µM in series [14], 157 µM in series [17] and 78.6 µM in series [18]. In addition, the chromatographic logP in [15] turned out to be 3.1. Further, the IC50 in series [19] was greater than 100 µM.
Take `NNC(=O)c1ccncc1` [INH, isoniazid, reference compound]: the MIC in series [7] came to 467 µM (≈ 64 µg/mL); in [13] it was 117 µM (≈ 16 µg/mL).
For the compound `C#CCOc1ccc2c(c1)Nc1c(c[n+](C)c3ccccc13)S2` [Compound 6h, 10-propargyloxy-5-methyl-12H-quino[3,4-b][1,4]benzothiazinium chloride], the MBC came to 90.1 µM in [1]; 45.1 µM in series [2]; 22.5 µM in [4]; 90.1 µM in series [8]; 45.1 µM in [10]; 45.1 µM in series [11]. In addition, the minimal bactericidal concentration (MBC) in series [16] and in [20] was 45.1 µM throughout. In addition, the MIC is 45.1 µM in series [3]; 45.1 µM in series [5]; 90.1 µM in [6]; 22.5 µM in series [7]; 45.1 µM in series [9]; 22.5 µM in [12]. In addition, the MIC in series [13] stood at 22.5 µM; in series [14], 45.1 µM; in series [17], 45.1 µM; in [18], 90.1 µM. For the same compound, the chromatographic logP in series [15] was 1.74. In series [19], the IC50 is greater than 100 µM.
As to `CN(C)[C@@H]1C(O)=C(C(N)=O)C(=O)[C@@]2(O)C(O)=C3C(=O)c4c(O)cccc4[C@@](C)(O)[C@H]3C[C@@H]12` [TTC, tetracycline, reference compound], the MIC in series [5] was 4.52 µM (≈ 2.01 µg/mL); in [6], 36.1 µM (≈ 16 µg/mL); in series [14], greater than 72.1 µM; in series [18] it was 36.1 µM (≈ 16 µg/mL).
As to `Cc1onc(-c2ccccc2)c1C(=O)N[C@@H]1C(=O)N2[C@@H]1SC(C)(C)[C@@H]2C(=O)O` [OXA, oxacillin, reference compound], the MBC turned out to be 79.8 µM (≈ 32 µg/mL) in [1], 9.9 µM (≈ 3.97 µg/mL) in series [2], 29.7 µM (≈ 11.9 µg/mL) in [8] and 1.25 µM (≈ 0.502 µg/mL) in series [11]. Moreover, the MIC in [5] was found to be 1.25 µM (≈ 0.502 µg/mL); in series [6], 79.8 µM (≈ 32 µg/mL); in series [14], 9.9 µM (≈ 3.97 µg/mL); in series [18] it was 29.7 µM (≈ 11.9 µg/mL).
Consider `COc1cccc2c1C(=O)c1c(O)c3c(c(O)c1C2=O)C[C@@](O)(C(=O)CO)C[C@@H]3O[C@H]1C[C@H](N)[C@H](O)[C@H](C)O1` [doxorubicin, reference compound], for which, in [19], half-maximal inhibition (IC50) was put at 5.5 µM.
Turning to `O=C(O)c1cn(C2CC2)c2cc(N3CCNCC3)c(F)cc2c1=O` [CPX, ciprofloxacin, reference compound], in [21], the “Conc.: corresponding multiple of MBC with at least 70% inhibition of respiratory activity” value is reported as 32× MIC (32× MBC) and the “Conc.: lowest multiple of MIC with at least 70% inhibition of respiratory activity” value is given as 32× MIC (32× MBC). Besides, the “S. aureus Respiration Inhibition” value in [21] (at the concentration given) was found to be 96.1%.
For the compound `CO[C@H]1/C=C/O[C@@]2(C)Oc3c(C)c(O)c4c(O)c(c(/C=N/N5CCN(C)CC5)c(O)c4c3C2=O)NC(=O)/C(C)=C\C=C\[C@H](C)[C@H](O)[C@@H](C)[C@@H](O)[C@@H](C)[C@H](OC(C)=O)[C@@H]1C` [RIF, rifampicin, reference compound], the MIC in [7] was determined as 2.43 µM (≈ 2 µg/mL); in series [13] it was 19.4 µM (≈ 16 µg/mL).
